pEC50: −log10 of the molar value.
Target: T1, GABAB receptor (Homo sapiens, UniProt O75899+Q9UBS5)
T1 construct: expressed in transfected cells; host or cells: CHO cells (membranes)
Assay: [35S]-GTPγS binding assay, potency of PAM
Type: biochemical
Settings: potency of the positive allosteric modulator; log EC50 for GABA plotted against log concentration of modulator
Experimental: [^35S]-GTPγS binding assays were performed at 30° C. for 45 min in membrane buffer (100 mM NaCl, […], 1 mM EDTA, 50 mM HEPES, pH 7.4) containing 0.025 μg/μl of membrane protein (prepared from the cell lines described above) with 0.01% bovine serum albumin (fatty acid free), 10 μM GDP, 100 μM DTT and 0.53 nM [^35S]-GTPγS (Amersham-Pharmacia Biotech) in a final volume of 200 μl. Nonspecific binding was determined in the presence of 20 μM GTPγS. The reaction was started by the addition of GABA at concentration between 1 mM and 0.1 nM in the presence or absence of the required concentration of PAM. The reaction was terminated by addition of ice-cold wash buffer (50 mM Tris-HCl, 5 mM MgCl2, 50 mM NaCl, pH 7.4) followed by rapid filtration under vacuum through Printed Filtermat A glass fiber filters (Wallac) (0.05% PEI treated) using a Micro 96 Harvester (Skatron Instruments). The filters were dried for 30 min at 50° C., then a paraffin scintillant pad was melted onto the filters and the bound radioactivity was determined using a 1450 Microbeta Trilux (Wallac) scintillation counter.
GABA dose-response curves in the presence and absence of test compounds were constructed using the 4-parameter logistic equation, y=ymax+((ymin−ymax)/1+(x/C)^D), where C=EC50 and D=slope factor.
The potency of PAM in GTPγS assays was determined by plotting the log EC50 for GABA against the log concentration of the positive allosteric modulator in the presence of which the measurement was performed.

T1 sequence (Q9UBS5 15-961 limits assumed): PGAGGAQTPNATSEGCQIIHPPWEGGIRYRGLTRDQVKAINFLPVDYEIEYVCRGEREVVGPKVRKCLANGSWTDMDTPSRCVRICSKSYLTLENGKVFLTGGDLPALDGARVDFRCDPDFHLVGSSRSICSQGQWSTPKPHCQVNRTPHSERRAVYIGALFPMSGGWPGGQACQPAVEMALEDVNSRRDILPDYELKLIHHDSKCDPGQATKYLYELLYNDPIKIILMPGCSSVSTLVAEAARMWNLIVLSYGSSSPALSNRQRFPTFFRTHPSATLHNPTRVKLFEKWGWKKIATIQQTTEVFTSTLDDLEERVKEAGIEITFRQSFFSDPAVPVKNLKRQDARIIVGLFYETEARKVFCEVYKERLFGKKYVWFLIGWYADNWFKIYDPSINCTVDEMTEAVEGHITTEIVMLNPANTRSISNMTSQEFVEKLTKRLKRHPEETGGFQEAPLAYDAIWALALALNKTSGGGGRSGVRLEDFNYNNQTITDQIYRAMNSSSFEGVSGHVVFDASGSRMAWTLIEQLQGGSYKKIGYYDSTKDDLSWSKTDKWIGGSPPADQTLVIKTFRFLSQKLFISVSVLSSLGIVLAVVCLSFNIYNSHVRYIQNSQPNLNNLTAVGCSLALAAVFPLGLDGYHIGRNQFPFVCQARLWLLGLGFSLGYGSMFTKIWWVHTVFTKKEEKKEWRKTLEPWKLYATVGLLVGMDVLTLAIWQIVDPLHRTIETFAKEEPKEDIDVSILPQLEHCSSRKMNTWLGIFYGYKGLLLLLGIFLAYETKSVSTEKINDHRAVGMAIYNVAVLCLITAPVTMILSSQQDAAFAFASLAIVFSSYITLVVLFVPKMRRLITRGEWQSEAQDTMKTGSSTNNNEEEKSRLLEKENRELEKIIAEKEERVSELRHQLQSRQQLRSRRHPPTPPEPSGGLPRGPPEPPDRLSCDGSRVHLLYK
T1 sequence (O75899 42-941): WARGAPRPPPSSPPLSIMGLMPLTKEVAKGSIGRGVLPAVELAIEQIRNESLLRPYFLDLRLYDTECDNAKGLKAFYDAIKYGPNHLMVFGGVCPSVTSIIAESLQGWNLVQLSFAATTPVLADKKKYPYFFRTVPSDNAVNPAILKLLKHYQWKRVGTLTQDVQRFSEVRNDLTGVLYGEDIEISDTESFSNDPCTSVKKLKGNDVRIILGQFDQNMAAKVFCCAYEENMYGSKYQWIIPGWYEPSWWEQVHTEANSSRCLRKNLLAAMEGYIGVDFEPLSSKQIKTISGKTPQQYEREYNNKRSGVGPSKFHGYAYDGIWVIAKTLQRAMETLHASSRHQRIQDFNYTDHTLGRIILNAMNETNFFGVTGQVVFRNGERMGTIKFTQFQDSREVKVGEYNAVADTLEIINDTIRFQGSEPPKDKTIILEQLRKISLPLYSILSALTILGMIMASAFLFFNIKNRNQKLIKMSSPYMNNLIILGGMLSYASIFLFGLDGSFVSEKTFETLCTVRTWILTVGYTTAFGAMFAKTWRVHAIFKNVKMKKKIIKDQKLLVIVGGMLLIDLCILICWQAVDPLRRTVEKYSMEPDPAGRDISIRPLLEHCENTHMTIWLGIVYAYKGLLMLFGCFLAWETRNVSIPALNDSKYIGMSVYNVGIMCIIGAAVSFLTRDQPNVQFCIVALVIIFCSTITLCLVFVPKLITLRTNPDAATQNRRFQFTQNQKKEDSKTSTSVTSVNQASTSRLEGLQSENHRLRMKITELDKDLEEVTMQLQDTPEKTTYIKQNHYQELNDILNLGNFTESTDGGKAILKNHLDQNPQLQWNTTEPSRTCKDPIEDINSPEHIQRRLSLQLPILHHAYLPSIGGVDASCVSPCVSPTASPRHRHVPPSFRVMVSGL

pEC50 | SMILES
5.61 | CN(C)c1nc(NC(=O)COCc2ccccc2)c(C(=O)OC(C)(C)C)n1-c1ccccc1 [Example 9, tert-butyl 4-{[(benzyloxy)acetyl]amino}-2-(dimethylamino)-1-phenyl-1H-imidazole-5-carboxylate]
5.60 | CCCc1c(C(=O)Nc2nc(N(C)C)n(-c3ccccc3)c2C(=O)OC(C)(C)C)cnn1-c1ccccc1 [Example 44, tert-butyl 2-(dimethylamino)-1-phenyl-4-{[(1-phenyl-5-propyl-1H-pyrazol-4-yl)carbonyl]amino}-1H-imidazole-5-carboxylate]
5.29 | CN(C)c1nc(NC(=O)C2Cc3ccccc3O2)c(C(=O)OC(C)(C)C)n1-c1ccccc1 (stereo not drawn) [Example 13, tert-butyl 4-[(2,3-dihydro-1-benzofuran-2-ylcarbonyl)amino]-2-(dimethylamino)-1-phenyl-1H-imidazole-5-carboxylate]

From patent US7812026B2, “Imidazole derivatives having a positive allosteric GABAB receptor modulator effect and methods of use” (AstraZeneca AB, priority 2005, dated 2010)
